{
  "source": "patent US20230061908A1",
  "about": "(priority 2020, published 2023)",
  "origin": "cited, not measured here",
  "conditions": "wide distribution to most tissues",
  "data": [
    {"smiles": "CCC(CC)COC(=O)[C@H](C)N[P@](=O)(OC[C@H]1O[C@@](C#N)(c2ccc3c(N)ncnn23)[C@H](O)[C@@H]1O)Oc1ccccc1", "note": "[Remdesivir]", "values": [
      {"measurement": "crossing of the BBB (blood-brain barrier)", "value": "does not cross the BBB"}
    ]}
  ]
}
